Where a name gives a salt, the structure may show the parent alone.
Legend:
human FXR = molecular target: T1, human FXR (Homo sapiens, UniProt Q96RI1); assay: FXR reporter assay (cellular FXR activities); type: cell-based; conditions: for EC50: FXR reporter cells, 24 hours incubation, luciferase, read-out: Reporter Cell EC50; for Emax: read-out: Emax (%) (GW4064 Emax = 100%)
T1 construct: expressed in transfected cells
T1 sequence (Q96RI1 1-486): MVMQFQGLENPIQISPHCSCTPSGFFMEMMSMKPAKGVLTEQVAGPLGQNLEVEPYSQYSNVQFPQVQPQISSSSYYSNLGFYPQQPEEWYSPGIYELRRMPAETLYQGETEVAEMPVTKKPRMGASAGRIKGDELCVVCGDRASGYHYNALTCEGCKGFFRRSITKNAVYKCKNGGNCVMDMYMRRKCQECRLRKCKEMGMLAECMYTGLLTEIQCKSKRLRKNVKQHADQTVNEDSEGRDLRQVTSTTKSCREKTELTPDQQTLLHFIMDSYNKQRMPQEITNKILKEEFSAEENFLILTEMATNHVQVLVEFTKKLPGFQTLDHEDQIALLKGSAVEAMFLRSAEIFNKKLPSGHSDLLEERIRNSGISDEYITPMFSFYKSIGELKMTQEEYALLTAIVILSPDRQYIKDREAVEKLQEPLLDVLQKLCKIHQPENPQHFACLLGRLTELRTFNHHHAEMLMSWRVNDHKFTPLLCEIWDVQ
Method in brief: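 Reporter cells overexpressing human FXR exposed to compound dilutions for 24 h at 37 °C, 5% CO2. Luciferase signal used to calculate EC50.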

Mouse pharmacokinetics = type: in vivo; design: concentration or dose not given beside the values; conditions: mouse; Balb/c male mice; blood samples 15 to 1140 min; LC-MS/MS; read-out: AUC
Procedure: To evaluate the pharmacokinetics test, the invented 18 compounds of examples were determined as follows. Blood samples are collected at 15, 30, 60, 120, 240, 480, 1140 min. Quantification is by using a LC-MS/MS method specific to the selected compound. Pharmacokinetics parameters are calculated using WinNonLinnon compartmental analysis software.

SMILES | EC50 (human FXR) [nM] | Emax (human FXR) [%] | AUC (Mouse pharmacokinetics) [ng·h/mL]
Nc1cc(C#Cc2ccc(OCc3c(-c4c(Cl)cccc4Cl)noc3C3CC3)cc2Cl)cc(C(=O)O)c1 [Compound I-25, 3-amino-5-((2-chloro-4-((5-cyclopropyl-3-(2,6-dichlorophenyl)isoxazol-4-yl)methoxy)phenyl)ethynyl)benzoic acid] | 60 to 200 | 97 | 722
O=C(O)c1ccc(F)c(C#Cc2ccc(OCc3c(-c4c(Cl)cccc4Cl)noc3C3CC3)cc2Cl)c1 [Compound I-38, 3-((2-chloro-4-((5-cyclopropyl-3-(2,6-dichlorophenyl)isoxazol-4-yl)methoxy)phenyl)ethynyl)-4-fluorobenzoic acid] | 60 to 200 | 92 | 1000
O=C(O)c1cccc(C#Cc2ccc(OCc3c(-c4c(Cl)cccc4Cl)noc3C3CC3)cc2C(F)(F)F)c1 [Compound I-3, 3-((4-((5-cyclopropyl-3-(2,6-dichlorophenyl)isoxazol-4-yl)methoxy)-2-(trifluromethyl)phenyl)ethynyl)benzoic acid] | 200 to 1000 | > 100 | 760
O=C(O)c1cc(C#Cc2ccc(OCc3c(-c4c(Cl)cccc4Cl)noc3C3CC3)cc2Cl)cc2[nH]ncc12 [Compound I-99, 6-((2-chloro-4-((5-cyclopropyl-3-(2,6-dichlorophenyl)isoxazol-4-yl)methoxy)phenyl)ethynyl)-1H-indazole-4-carboxylic acid] | 60 to 200 | 86 | 205
O=C(O)c1cncc(C#Cc2ccc(OCc3c(-c4c(Cl)cccc4Cl)noc3C3CC3)cc2Cl)c1 [Compound I-20, 5-((2-chloro-4-((5-cyclopropyl-3-(2,6-dichlorophenyl)isoxazol-4-yl)methoxy)phenyl)ethynyl)nicotinic acid] | 60 to 200 | 94 | 438
O=C(O)c1cc(C#Cc2ccc(OCc3c(-c4c(Cl)cccc4Cl)noc3C3CC3)cc2Cl)c2cn[nH]c2c1 [Compound I-89, 4-((2-chloro-((5-cyclopropyl-3-(2,6-dichlorophenyl)isoxazol-4-yl)methoxy)phenyl)ethynyl)-1H-indazole-6-carboxylic acid] | 20 to 60 | 88 | 271
CC(C)Nc1cc(C#Cc2ccc(OCc3c(-c4c(Cl)cccc4Cl)noc3C3CC3)cc2Cl)cc(C(=O)O)c1 [Compound I-54, 3-((2-chloro-4-((5-cyclopropyl-3-(2,6-dichlorophenyl)isoxazol-4-yl)methoxy)phenyl)ethynyl)-5-(isopropylamino)benzoic acid] | ≤ 20 | > 100 | 934
O=C(O)c1cc(Cl)cc(C#Cc2ccc(OCc3c(-c4c(Cl)cccc4Cl)noc3C3CC3)cc2Cl)c1 [Compound I-27, 3-chloro-5-((2-chloro-4-((5-cyclopropyl-3-(2,6-dichlorophenyl)isoxazol-4-yl)methoxy)phenyl)ethynyl)benzoic acid] | 20 to 60 | 91 | 
Cc1nc2cc(C#Cc3ccc(OCc4c(-c5c(Cl)cccc5Cl)noc4C4CC4)cc3Cl)cc(C(=O)O)c2o1 [Compound I-103, 5-((2-chloro-4-((5-cyclopropyl-3-(2,6-dichlorophenyl)isoxazol-4-yl)methoxy)phenyl)ethynyl)-2-methylbenzo[d]oxazole-7-carboxylic acid] | ≤ 20 | > 100 | 
COC(Cn1ccc2c(C#Cc3ccc(OCc4c(-c5c(Cl)cccc5Cl)noc4C4CC4)cc3Cl)cc(C(=O)O)cc21)OC [Compound I-96, 4-((2-chloro-4-((5-cyclopropyl-3-(2,6-dichlorophenyl)isoxazol-4-yl)methoxy)phenyl)ethynyl)-1-(2,2-dimethoxyethyl)-1H-indole-6-carboxylic acid] | ≤ 20 | 98 | 
CCOC(=O)Nc1cc(C#Cc2ccc(OCc3c(-c4c(Cl)cccc4Cl)noc3C3CC3)cc2Cl)cc(C(=O)OC)c1 [Compound I-8, methyl 3-((2-chloro-4-((5-cyclopropyl-3-(2,6-dichlorophenyl)isoxazol-4-yl)methoxy)phenyl)ethynyl)-5-((ethoxycarbonyl)amino)benzoate] | > 1000 | 98 | 
N#Cc1cc(C#Cc2ccc(OCc3c(-c4c(Cl)cccc4Cl)noc3C3CC3)cc2Cl)cc(C(=O)O)c1 [Compound I-33, 3-((2-chloro-4-((5-cyclopropyl-3-(2,6-dichlorophenyl)isoxazol-4-yl)methoxy)phenyl)ethynyl)-5-cyanobenzoic acid] | 60 to 200 | 99 | 
O=C(O)c1ccc(C#Cc2ccc(OCc3c(-c4c(Cl)cccc4Cl)noc3C3CC3)cc2Cl)nc1 [Compound I-17, 6-((2-chloro-4-((5-cyclopropyl-3-(2,6-dichlorophenyl)isoxazol-4-yl)methoxy)phenyl)ethynyl)nicotinic acid] | 200 to 1000 | 89 | 
C#Cc1cc(C#Cc2ccc(OCc3c(-c4c(Cl)cccc4Cl)noc3C3CC3)cc2Cl)cc(C(=O)O)c1 [Compound I-32, 3-((2-chloro-4-((5-cyclopropyl-3-(2,6-dichlorophenyl)isoxazol-4-yl)methoxy)phenyl)ethynyl)-5-ethynylbenzoic acid] | 60 to 200 | 94 | 
O=C(O)c1ccnc(C#Cc2ccc(OCc3c(-c4c(Cl)cccc4Cl)noc3C3CC3)cc2Cl)c1 [Compound I-18, 2-((2-chloro-4-((5-cyclopropyl-3-(2,6-dichlorophenyl)isoxazol-4-yl)methoxy)phenyl)ethynyl)isonicotinic acid] | 200 to 1000 | 87 | 
CN(C(=O)OC(C)(C)C)c1cc(C#Cc2ccc(OCc3c(-c4c(Cl)cccc4Cl)noc3C3CC3)cc2Cl)cc(C(=O)O)c1 [Compound I-78, 3-((tert-butoxycarbonyl)(methyl)amino)-5-((2-chloro-4-((5-cyclopropyl-3-(2,6-dichlorophenyl)isoxazol-4-yl)methoxy)phenyl)ethynyl)benzoic acid] | 20 to 60 | 89 | 
O=C(O)c1cc(C#Cc2ccc(OCc3c(-c4c(Cl)cccc4Cl)noc3C3CC3)cc2Cl)cc(N2CCOC2=O)c1 [Compound I-83, 3-((2-chloro-4-((5-cyclopropyl-3-(2,6-dichlorophenyl)isoxazol-4-yl)methoxy)phenyl)ethynyl)-5-(2-oxooxazolidin-3-yl)benzoic acid] | 20 to 60 | 89 | 
O=C(O)c1cc(C#Cc2ccc(OCc3c(-c4c(Cl)cccc4Cl)noc3C3CC3)cc2Cl)cc(N2CCC2)c1 [Compound I-55, 3-(azetidin-1-yl)-5-((2-chloro-4-((5-cyclopropyl-3-(2,6-dichlorophenyl)isoxazol-4-yl)methoxy)phenyl)ethynyl)benzoic acid] | 20 to 60 | > 100 | 
O=C(O)c1cc(C#Cc2ccc(OCc3c(-c4c(Cl)cccc4Cl)noc3C3CC3)cc2Cl)cc2nc(C3CC3)oc12 [Compound I-110, 5-((2-chloro-4-((5-cyclopropyl-3-(2,6-dichlorophenyl)isoxazol-4-yl)methoxy)phenyl)ethynyl)-2-cyclopropylbenzo[d]oxazole-7-carboxylic acid] | ≤ 20 | 92 | 
O=C(O)c1cc(C#Cc2ccc(OCc3c(-c4c(Cl)cccc4Cl)noc3C3CC3)cc2Cl)cc(N2CCCC2)c1 [Compound I-56, 3-((2-chloro-4-((5-cyclopropyl-3-(2,6-dichlorophenyl)isoxazol-4-yl)methoxy)phenyl)ethynyl)-5-(pyrrolidin-1-yl)benzoic acid] | ≤ 20 | 96 | 
CN(C)c1cc(C#Cc2ccc(OCc3c(-c4c(Cl)cccc4Cl)noc3C3CC3)cc2Cl)ccc1C(=O)O [Compound I-23, 4-((2-chloro-4-((5-cyclopropyl-3-(2,6-dichlorophenyl)isoxazol-4-yl)methoxy)phenyl)ethynyl)-2-(dimethylamino)benzoic acid] | 60 to 200 | > 100 | 
O=C(O)c1cc(C#Cc2ccc(OCc3c(-c4c(Cl)cccc4Cl)noc3C3CC3)cc2Cl)c2ccn(CCN3CCOCC3)c2c1 [Compound I-95, 4-((2-chloro-4-((5-cyclopropyl-3-(2,6-dichlorophenyl)isoxazol-4-yl)methoxy)phenyl)ethynyl)-1-(2-morpholinoethyl)-1H-indole-6-carboxylic acid hydrochloride] | 20 to 60 | > 100 | 
O=C(O)c1cccc(C#Cc2c(Cl)cc(OCc3c(-c4c(Cl)cccc4Cl)noc3C3CC3)cc2Cl)c1 [Compound I-34, 3-((2,6-dichloro-4-((5-cyclopropyl-3-(2,6-dichlorophenyl)isoxazol-4-yl)methoxy)phenyl)ethynyl)benzoic acid] | 60 to 200 | 100 | 
CC(C)c1nc2c(C(=O)O)cc(C#Cc3ccc(OCc4c(-c5c(Cl)cccc5Cl)noc4C4CC4)cc3Cl)cc2o1 [Compound I-115, 6-((2-chloro-4-((5-cyclopropyl-3-(2,6-dichlorophenyl)isoxazol-4-yl)methoxy)phenyl)ethynyl)-2-isopropylbenzo[d]oxazole-4-carboxylic acid] | 20 to 60 | 97 | 

From patent publication US10988449B2, “Isoxazole derivatives as nuclear receptor agonists and uses thereof” (IL DONG PHARMACEUTICAL CO., LTD., priority 2017, dated 2021)
